Source: patent US20260097111A1, “ETHER LIPIDS FOR HYPERACTIVATION OF MAMMALIAN DENDRITIC CELLS” (priority 2022, published 2026)

What was measured:
[1] = DGP DP sizing (Malvern Mastersizer 3000); type: physicochemical
Experimental: DGP (Compound 2) DP Synthesis. DGP DP was synthesized at a 3 mL scale using the following procedure. […] Sterile 10×PBS was added to the solution resulting in a 1×PBS concentration and 4 mg/mL DGP DP concentration. The mixture was then stirred at 1000 rpm for another 30 min at RT. For DGP DP prepared at 12 or 18 mL scale, the same procedure was followed, with volumes, vials, and stir bars scaled up to achieve the 4 mg/mL DGP DP preparation.
In cases where DGP DS was micronized prior to use, DGP DS underwent jet milling using an M-50 (Microtech Engineering Company) to reduce DS size to an average of 3-5 μm. […] For in vitro studies, DGP DP samples were sonicated at 2 W (low energy) or 4 W (medium energy) over two 30 s intervals. For in vivo studies, DGP DP samples were sonicated at 3 W over two 30 s intervals as a mid-energy assessment.
DGP (Compound 2) DP Sizing. DGP DP size was determined using a Malvern Mastersizer 3000 with a Hydro SV attachment. Briefly, DGP DP was diluted to 1 mg/mL in water prior to sizing. The 1 mg/mL DGP DP was added drop-wise to a measurement chamber filled with water under spinning until laser obscuration was 3-5%. Five measurements were taken per sample, with the average of the measurements reported.

[2] = test system: myeloid cells in dLN and spleen; assay: Myeloid cells in dLN and spleen after SC injection (flow cytometry); type: in vivo, mice
Description: dLN Dissection and Dissociation. […] The dLN were then transported on ice to Corner Therapeutics labs. The dLN was then processed using a Miltenyi spleen dissociation kit according to manufacturer's protocol. In brief, the dLN from each mouse was transferred into the gentleMACS C Tube containing the enzyme mix. The dLN were then dissociated using the gentleMACS Program 37C_m_SDK_1. Cell suspensions were then collected and filtered through a 30 μm Pre-Separation Filter. Cells were counted using the Moxi automated counter, then resuspended in 400 ul of FACS buffer for cell staining.
Spleen Dissection and Dissociation. […] The spleen samples were then transported on ice to Corner Therapeutics labs. Spleen samples were then processed a Miltenyi spleen dissociation kit according to manufacturer's protocol. In brief, each spleen was transferred into the gentleMACS C Tube containing the enzyme mix. The spleens were then dissociated using the gentleMACS program 37C_m_SDK_1. ACK lysis was performed for 2 min. Cell suspensions were then collected and filtered through a 30 μm Pre-Separation Filter. Cells were counted using the Moxi automated counter, then resuspended in 400 ul of FACS buffer for cell staining.
Flow Cytometry. Single cell suspension from the draining lymph or spleen were resuspended in 100 μL PBS containing Live/Dead Violet (1:1000) and incubated for 20 min at 4° C. Cells were then washed and resuspend in 100 μL FACS buffer containing Fc block (1:100) for 10 min. For myeloid cell staining, cells were then resuspended in 100 μL of antibodies detailed in Table 13-1 to identify monocytes as CD11b^+ Ly6C^+F4/80^neg MHC^neglive cells, moDCs as CD11b^+ Ly6C^+F4/80^neg MHC^+ live cells, macrophages as F4/80^+ MHC^+CD24^neg live cells, and DCs as CD11c^+MHC-II^+ F4/80^neg live cells. Counter Bright counting beads were added before the acquisition of samples.

human moDCs = assay: IL-6 secretion by human moDCs; type: cell-based; settings: human moDCs, 41.25 μM lipid with R848, compared with R848 + vehicle; FIG. 16
[3] = Serum chemokines and cytokines after SC injection; type: in vivo, mice; settings: SC injection; 2, 24 and 48 hours post injection; FIG. 49
Experimental: Lipid Preparation. […] Lipids were used for chemical injections or DC treatment within one hour of their preparation.
Subcutaneous (SC) Injection. Mice were placed under Isoflurane for a few min for anesthesia. Tubes containing the chemicals were vortexed for 30 seconds, then loaded with a 1 mL Sub-Q syringe.
Blood Collection. Mice were placed under Isoflurane for approximately 10 min for anesthesia. Using a 21G needle, mice were gently poked through the skin to the submandibular space to induce bleeding. Five-Six drops were collected in a mini collect K2EDTA blood collection tube. Blood samples were transported back to Corner Therapeutics lab on ice. The blood was then centrifuged at 1500×g for 5 min. After centrifugation, blood was collected into a 96-well round bottom plate and stored at −80° C.
Measurement of Serum Chemokines and Cytokines. Secreted cytokines were measured in the supernatant by cytokine bead array using the LEGENDplex™ Mouse Murine Proinflammatory Chemokine, Murine Cytokine Release Syndrome Legendplex and LEGENDplex™ Mouse Cytokine Panel 2 (Biolegend) according to the manufacturer's protocol. Data were collected using a Quanteon Novocyte flow cytometer and analyzed using the cloud-based software provided by Biolegend.

murine FLT3L-DCs = assay: Murine bone marrow-derived FLT3L-DCs hyperactivation; type: cell-based, mice; settings: R848 alone vs R848 in combination with DGP; FIG. 4C
Experimental: Murine bone marrow-derived FLT3L-DCs generation. Leg femur and tibia were removed from mice, cut with scissors, and flushed into sterile tubes. Bone marrow suspension was treated with ACK for 1 minute, then passed through a 40 um cell strainer. Cells were counted and resuspended in media consisting of complete IMDM containing 10% FBS, penicillin and streptomycin, and supplements of L-glutamine and sodium pyruvate (I10). […] For each experiment, 5 mice are used to collect BM and to generate DCs.
Lipid preparation. […] Lipid stocks were then further diluted in PBS to treat cells.
Murine bone marrow-derived FLT3L-DCs hyperactivation. BMDCs were harvested on day 8 post differentiation, washed with PBS, and re-plated in FLT3L-containing I10 at a concentration of 1×10^5 cells/mL. Cells were primed with or without 1 μg/mL R848 (final) then treated with or without a hyperactivating lipid (or vehicle control). Forty-eight hours post stimulation, supernatants were collected for cytokine measurement. Viability was measured using the CellTiter-Glo assay (Promega) which measures ATP content from cells. Fifty microliters of CellTiter-Glo reagent were added to 50 μL of cells. Luminescence was quantified on a SpectraMax m5e plate reader using an integration time of 500 milliseconds. Viability data were set relative to control conditions where cells were treated with R848. IL-1β and TNFα cytokine were measured using sandwich ELISAs (Invitrogen).

[4] = 18 mL scale, no DS or DP modification

With `CCCCCCCCCCCCCCCCCCCCCCOC[C@@H](O)COP(=O)(O)O` [Compound 2, 1-docosyl-sn-glycerol-3-phosphate] the “Particulate Size D10” value ([1]; 3 mL scale) was 6.83 μm, the “Particulate Size D50” value ([1]; 3 mL scale) was 13.8 μm and the “Particulate Size D90” value ([1]; 3 mL scale) was 27.5 μm. For the same compound, the “Particulate Size D10” value ([1]; 12 mL scale) was 12.0 μm, the “Particulate Size D50” value ([1]; 12 mL scale) was 25.0 μm and the “Particulate Size D90” value ([1]; 12 mL scale) was 51.7 μm. The average size ([1]; 12 or 18 mL scale) was 26-27 μm, the “Particulate Size D10” value [1, 4] was 12.9 μm and the “Particulate Size D50” value [1, 4] was 26.7 μm. The “Particulate Size D90” value [1, 4] was 56.0 μm, the “absolute number of monocytes in the dLN” value ([2]; 4 hours post SC injection vs PBS, FIG. 50A) was “did not induce an increase in the absolute number of cells in the dLN at 4 hours” and the “absolute number of moDCs in the dLN” value ([2]; 4 hours post SC injection vs PBS, FIG. 50B) was “did not induce an increase in the absolute number of moDCs in the dLN”. For the same compound, the “CD69 MFI on myeloid cells in the dLN” value ([2]; 4 hours post SC injection vs PBS, FIG. 52A-D) was “did not induce CD69 upregulation on myeloid cells in the dLN”, the “CD69 MFI on myeloid cells in the spleen” value ([2]; 4 hours post SC injection vs PBS, FIG. 53A-D) was “did not induce the upregulation of CD69 on myeloid cells in the spleen” and the “CCR7 MFI on DCs in the dLN and spleen” value ([2]; 4 hours post SC injection, FIG. 54A-B) was “did not induce the upregulation of CCR7”. For the same compound, the “monocytes in the spleen” value ([2]; 48 hours post SC injection vs PBS, FIG. 51A) was “decreased the levels of monocytes in the spleen”, the “abundance of macrophages and cDCs in the dLN” value ([2]; 48 hours post SC injection, FIG. 50C-D) was “did not increase” and the IL-6 secretion (human moDCs) was “IL-6 was secreted at similar levels”. For the same compound, the “cytokine and chemokine release in the serum” value [3] was “unable to induce any cytokine or chemokine release in the serum at any timepoint” and the TNFα secretion (murine FLT3L-DCs) was “comparable”.
